According to US10874667B2, “Pharmaceutical salt of antitumor heterocyclic imidazole compound” (SHANGHAI HUILUN LIFE SCIENCE & TECHNOLOGY CO., LTD., priority 2016, dated 2020):

Test: Solubility test in water (HPLC)
Format: physicochemical
Settings: stirred at constant temperature for 30 min
Method: The solubility of the salt of the compound of Formula (I) of the present invention was determined by the following method:
a) About 200 mg of the salt of the compound of Formula (I) was accurately weighed, dissolved in 200 ml of an aqueous solution, stirred at a constant temperature for 30 min, and allowed to stand. The supernatant was centrifuged, and then the supernatant of the centrifugate was taken and used as a test solution.
b) About 200 mg of the compound of Formula (I) was accurately weighed, dissolved in aqueous methanol, and quantitatively diluted into a solution containing 0.02 mg of free base per 1 ml.
The solution was used as a reference solution.
The table below compares the solubilities of the compound of Formula (I) and its various forms of salts.
With `O=C(c1cc(Cc2n[nH]c(=O)c3ccccc23)ccc1F)N1CCN(c2ccc3[nH]cnc3n2)CC1.O=S(=O)(O)c1ccccc1` [4-(3-(4-(1H-imidazo[4,5-b]pyridine-5-yl)piperazine-1-carbonyl)-4-fluorobenzyl)phthalazine-1(dihydro)-one benzenesulfonate] the Solubility in water was 230 µg/mL.
Compound `Cl.O=C(c1cc(Cc2n[nH]c(=O)c3ccccc23)ccc1F)N1CCN(c2ccc3[nH]cnc3n2)CC1` [4-(3-(4-(1H-imidazo[4,5-b]pyridine-5-yl)piperazine-1-carbonyl)-4-fluorobenzyl)phthalazine-1(dihydro)-one hydrochloride] has a Solubility in water of 340 µg/mL.
Compound `O=C(c1cc(Cc2n[nH]c(=O)c3ccccc23)ccc1F)N1CCN(c2ccc3[nH]cnc3n2)CC1.O=S(=O)(O)CCO` [4-(3-(4-(1H-imidazo[4,5-b]pyridine-5-yl)piperazine-1-carbonyl)-4-fluorobenzyl)phthalazine-1(dihydro)-one hydroxyethanesulfonate] has a Solubility in water of 310 µg/mL.
`Cc1ccc(S(=O)(=O)O)cc1.O=C(c1cc(Cc2n[nH]c(=O)c3ccccc23)ccc1F)N1CCN(c2ccc3[nH]cnc3n2)CC1` [4-(3-(4-(1H-imidazo[4,5-b]pyridine-5-yl)piperazine-1-carbonyl)-4-fluorobenzyl)phthalazine-1(dihydro)-one p-toluenesulfonate] showed a Solubility in water of 40 µg/mL.
`CS(=O)(=O)O.O=C(c1cc(Cc2n[nH]c(=O)c3ccccc23)ccc1F)N1CCN(c2ccc3[nH]cnc3n2)CC1` [4-(3-(4-(1H-imidazo[4,5-b]pyridine-5-yl)piperazine-1-carbonyl)-4-fluorobenzyl)phthalazine-1(dihydro)-onemethanesulfonate] gave a Solubility in water of 300 µg/mL.

Same assay, conditions: thermodynamic from solid, stirred at constant temperature for 30 min
In the case of `O=C(c1cc(Cc2n[nH]c(=O)c3ccccc23)ccc1F)N1CCN(c2ccc3[nH]cnc3n2)CC1` [Formula I, 4-(3-(4-(1H-imidazo[4,5-b]pyridine-5-yl)piperazine-1-carbonyl)-4-fluorobenzyl)phthalazine-1(dihydro)-one], the solubility at 30 min is reported as 1 µg/mL.
